Data: patent publication US10766917B2, “Nucleotides for the treatment of cancer” (IDENIX PHARMACEUTICALS LLC, priority 2015, dated 2020)
Read-outs that look alike come from different tables or passages of the source.

How the values were obtained:
Format in all cases: cell-based
BxPC-3 = assay: In vitro inhibition, CellTiter-Glo (CTG) assay; settings: 72 hr exposure
Description: (§1) Cells were grown in RPMI-1640 supplemented with L-Glutamine and 10% FBS of the following cell lines:
(§2) CCRF-CEM; HL-60; KG-1; CFPAC-1; MiaPACA-2; BxPC-3; HepG2; MDA-MB-231; HCT-116; A498; and NCI-H69
(§3) 18, 96 well plates of each cell line were seeded with the optimized number of cells per well in a total volume of 50 μper well. The plates were left overnight. Plate wells were seeded with 100 pt media for media control. The following day, cells were exposed to test compounds as described below. At the same time as drug exposure, a CTG assay was conducted on the 18th plate for the 0 hr count.
(§4) The compounds were added to cells and medium already on the plate to give desired final concentrations. 50 μL media were added to cell control wells, and 50 μL of mix added to vehicle control wells. 10 μM Doxorubicin was added to appropriate wells as control. Cells exposed to test compound were incubated at 37° C. for 72 hr followed by a CTG assay.
(§5) At the end of the 72 hr exposure period, plates were removed for a CellTiter-Glo (CTG) assay from a 37° C., 5% CO2 incubator and placed on the bench at room temperature for 30 mins. 100 μL of CellTiter-Glo reagent was added and mixed for 2 mins, followed by a further 10 min incubation at room temperature. Luminescence was recorded using Synergy 4.0.

MiaPACA-2 = assay: In vitro inhibition, CellTiter-Glo (CTG) assay; settings: 72 hr exposure
Description: as §1, §2, §3, §4, §5

NCI-H69 = assay: In vitro inhibition, CellTiter-Glo (CTG) assay
Description: as §1, §2, §3, §4, §5

HepG2 = assay: In vitro inhibition, CellTiter-Glo (CTG) assay; settings: 72 hr exposure
Description: as §1, §2, §3, §4, §5

A498 = assay: In vitro inhibition, CellTiter-Glo (CTG) assay; settings: 72 hr exposure
Description: as §1, §2, §3, §4, §5

HL-60 = assay: In vitro inhibition, CellTiter-Glo (CTG) assay
Description: as §1, §2, §3, §4, §5

CFPAC-1 = assay: In vitro inhibition, CellTiter-Glo (CTG) assay; settings: 72 hr exposure
Description: as §1, §2, §3, §4, §5

CCRF-CEM = assay: In vitro inhibition, CellTiter-Glo (CTG) assay; settings: 72 hr exposure
Description: as §1, §2, §3, §4, §5

KG-1 = assay: In vitro inhibition, CellTiter-Glo (CTG) assay
Description: as §1, §2, §3, §4, §5

HCT-116 = assay: In vitro inhibition, CellTiter-Glo (CTG) assay; settings: 72 hr exposure
Description: as §1, §2, §3, §4, §5

MDA-MB-231 = assay: In vitro inhibition, CellTiter-Glo (CTG) assay
Description: as §1, §2, §3, §4, §5

HuH-1 cells = assay: In vitro inhibition of HuH-1, MTT assay; settings: read-out: HuH-1: relative IC50
Description: HuH-1 cells were purchased from JCRB and tested with the following method:
Cells are suspended at a specific density in a specific culture medium (see table in 2.Cell lines).
Then, 100 μl of cell suspension are plated per well in 96-well plates.
Compounds or negative controls (DMSO) are added to the cells (100 μl of a compound solution in its specific medium with a final concentration of 0.15% DMSO).
Each compound concentration is tested in duplicate (6 concentrations per compound).
Cells are incubated at 37° C. for 72 h without treating again.
SDS is added to control wells (final concentration of 1%) and kept for 15 min at 37° C. SDS 1% represents the positive control of proliferation inhibition.
Cell supernatant is removed and 100 μl of a MTT (3-[4.5-dimethylthiazol-2-yl]-2.5-diphenyltetrazolium bromide) solution in fresh medium are added per well (MTT final concentration of 0.5 mg/ml) and incubated for 4 h at 37° C.
MTT reaction is stopped and homogenized by adding 100 μl/well of SDS 10%, 0.01M HCl and incubated for 2 h at 37° C.
Absorbance is measured at 570 nm.

[1] = Homo sapiens, NCI-H69, 72 h, 72 hr exposure
[2] = Homo sapiens, HL-60, 72 h, 72 hr exposure
[3] = Homo sapiens, MDA-MB-231, 72 hr exposure
[4] = Homo sapiens, KG-1, 72 h, 72 hr exposure

Row | Compound | IC50 (MiaPACA-2; Homo sapiens, MIA PaCa-2, 72 h) [µM] | IC50 (HepG2) [µM] | IC50 (A498; Homo sapiens, A498, 72 h) [µM] | IC50 (CFPAC-1) [µM] | IC50 (CCRF-CEM) [µM] | IC50 (KG-1; 72 hr exposure) [µM] | IC50 (HCT-116; Homo sapiens, HCT-116, 72 h) [µM] | IC50 (MDA-MB-231; [3]) [µM] | IC50 (NCI-H69; 72 hr exposure) [µM] | IC50 (A498) [µM] | IC50 (BxPC-3) [µM] | IC50 (MiaPACA-2) [µM] | IC50 (HCT-116) [µM] | other results
1 | Cn1c(COP(=O)(NCc2ccccc2)OC[C@H]2O[C@@H](n3ccc(N)nc3=O)C(F)(F)[C@@H]2O)cnc1[N+](=O)[O-] (single isomer, unassigned) [112 (diastereomer 1)] | 10 to 100 | 10 to 100 | 10 to 100 | 10 to 100 | 10 to 100 | 10 to 100 | 10 to 100 | 10 to 100 |  |  |  |  |  | IC50 (BxPC-3; Homo sapiens, BXPC-3, 72 h): 10 to 100 µM; IC50 (NCI-H69; [1]): 10 to 100 µM; IC50 (HL-60; [2]): 1 to 10 µM
2 | CCOC(=O)COP(=O)(N[C@@H](CC(C)C)C(=O)OCC)OC[C@H]1O[C@@H](n2ccc(N)nc2=O)C(F)(F)[C@@H]1O (single isomer, unassigned) [108 (diastereomer 1)] | < 1 |  |  |  |  |  | 1 to 10 | 1 to 10 | 1 to 10 | < 1 |  |  |  | IC50 (BxPC-3; Homo sapiens, BXPC-3, 72 h): 1 to 10 µM; IC50 (HepG2; Homo sapiens, HepG2, 72 h): < 1 µM; IC50 (HL-60; [2]): < 1 µM; IC50 (CFPAC-1; Homo sapiens, CFPAC-1, 72 h): < 1 µM; IC50 (CCRF-CEM; Homo sapiens, CCRF-CEM, 72 h): < 1 µM; IC50 (KG-1; [4]): < 1 µM
3 | CC(C)OC(=O)[C@H](C)NP1(=O)OC[C@H]2O[C@@H](n3ccc(N)nc3=O)C(F)(F)[C@@H]2O1 (single isomer, unassigned) [103 (diastereomer 1)] | 1 to 10 |  | 10 to 100 |  |  |  | 1 to 10 | 10 to 100 |  |  | 10 to 100 |  |  | IC50 (NCI-H69; Homo sapiens, NCI-H69, 72 hr exposure): 10 to 100 µM; IC50 (HepG2; Homo sapiens, HepG2, 72 h): < 1 µM; IC50 (HL-60; Homo sapiens, HL-60, 72 hr exposure): < 1 µM; IC50 (CFPAC-1; Homo sapiens, CFPAC-1, 72 h): < 1 µM; IC50 (CCRF-CEM; Homo sapiens, CCRF-CEM): < 1 µM; IC50 (KG-1; Homo sapiens, KG-1, 72 hr exposure): < 1 µM
4 | CCOC(=O)[C@@H](C)CCO[P@@]1(=O)OC[C@H]2O[C@@H](n3ccc(N)nc3=O)C(F)(F)[C@@H]2O1 (single isomer, unassigned) [Compound 122 Diastereoisomer 1] |  |  |  |  |  |  |  |  |  |  |  |  |  | IC50 (HuH-1 cells; Homo sapiens, HuH-1, 72 h): < 0.3 µM
5 | CC(C)OP1(=O)OC[C@H]2O[C@@H](n3ccc(N)nc3=O)C(F)(F)[C@@H]2O1 (single isomer, unassigned) [102 (diastereomer 2)] |  | < 1 | 10 to 100 | 1 to 10 |  |  |  | 10 to 100 |  |  | 1 to 10 | 1 to 10 | 1 to 10 | IC50 (NCI-H69; [1]): 10 to 100 µM; IC50 (KG-1; [4]): < 1 µM
6 | CCOC(=O)COP(=O)(N[C@@H](CC(C)C)C(=O)OCC)OC[C@H]1O[C@@H](n2ccc(N)nc2=O)C(F)(F)[C@@H]1O (single isomer, unassigned) [108 (diastereomer 2)] |  | < 1 |  | < 1 | < 1 | < 1 |  |  | 10 to 100 | 10 to 100 | < 1 | < 1 | 1 to 10 | IC50 (HL-60; 72 hr exposure): < 1 µM; IC50 (MDA-MB-231; 72 hr exposure): 1 to 10 µM
7 | CC(C)OC(=O)[C@H](C)NP1(=O)OC[C@H]2O[C@@H](n3ccc(N)nc3=O)C(F)(F)[C@@H]2O1 (single isomer, unassigned) [103 (diastereomer 2)] |  | < 1 |  | 1 to 10 | < 1 | < 1 |  |  | 10 to 100 | 10 to 100 | 1 to 10 | 1 to 10 | 1 to 10 | IC50 (HL-60; 72 hr exposure): < 1 µM; IC50 (MDA-MB-231; 72 hr exposure): 10 to 100 µM
8 | CC(C)OC(=O)[C@H](C)CCO[P@@]1(=O)OC[C@H]2O[C@@H](n3ccc(N)nc3=O)C(F)(F)[C@@H]2O1 (single isomer, unassigned; diastereoisomer 2) [Compound 120 Diastereoisomer 2] |  |  |  |  |  |  |  |  |  |  |  |  |  | IC50 (HuH-1 cells; 72 h): < 0.3 µM
9 | CC(C)OC(=O)[C@@H](C)CCO[P@@]1(=O)OC[C@H]2O[C@@H](n3ccc(N)nc3=O)C(F)(F)[C@@H]2O1 (single isomer, unassigned) [Compound 121 Diastereoisomer 2] |  |  |  |  |  |  |  |  |  |  |  |  |  | IC50 (HuH-1 cells; Homo sapiens, HuH-1, 72 h): < 0.3 µM
